Assay results: publication PMC8068036, “Synthesis of New Biscoumarin Derivatives, In Vitro Cholinesterase Inhibition, Molecular Modelling and Antiproliferative Effect in A549 Human Lung Carcinoma Cells” (International Journal of Molecular Sciences, 2021)
Entries after “also recorded” stand apart in the source; their conditions may differ.

Assays:
[1] = test system: A549 cells; experiment: Mitotic activity (Ki67 index) by immunolabelling and confocal microscopy; type: cell-based, human; details: 24 h, control 90.6 ± 5.7%
Protocol: The studied biscoumarin derivatives were added to cells seeded on 12-well μ-Chamber slides for 24 h. After cultivation with the derivatives, the samples (both the control without the derivatives and experimental groups) were washed with a 0.1 M PBS solution buffer to remove all non-cell-absorbed derivative residues and fixed with 4% paraformaldehyde for 20 min at RT. Alternatively, cells were incubated with Mitotracker Red (0.5 µM; Thermo Fisher Scientific, Waltham, MA, USA) for 30 min at 37 °C, washed with 0.1 M PBS, and fixed with 4% paraformaldehyde for 20 min at RT. For the quantification of proliferative activity and programmed cell death, samples were incubated overnight at 4 °C with the mouse anti-Ki67 antibody (NCL-L-Ki67-MM1, 1:100, Leica Biosystems, Wetzlar, Germany) and rabbit anti-cleaved PARP (cat. no. 94885, 1:100, Cell Signaling, Danvers, MA, USA) diluted in 0.1 M PBS containing 1% normal donkey serum (Jackson Immunoresearch, Cambridgeshire, Great Britain) and 0.3% Triton-X 100. […]
All samples were evaluated using a Leica TCS SP5X confocal system (Leica Microsystems, Mannheim, Germany). The biscoumarin derivatives were visualized in cells using a 405 nm laser, and the fluorescence was captured in the range of 420–480 nm with identical exposure parameters for all samples. […] Microphotographs were taken with a 40× objective lens (NA = 0.75; voxel size 223 × 223 nm) and a 63× oil lens (NA = 1.4; voxel size 171 × 171 nm); the images were captured and analyzed using LAS AF software (Leica Microsystems, Wetzlar, Germany).
The proliferative activity of cells incubated with the studied derivatives was expressed as a Ki67 index. In all samples (n = 3 samples per each experimental group), the number of Ki67^+ nuclei was calculated in groups of 100 randomly selected cells. […]

[2] = biological target: T1, hBChE (human plasma) (Homo sapiens, UniProt P06276); experiment: biochemical; type: biochemical; details: human plasma BChE, mean of at least three experiments
T1 construct: Human plasma was used as a source of BChE; from tissue; host or cells: human plasma from heparinized blood
Protocol: (§1) Human recombinant AChE (EC 3.1.1.7), 5,5′-dithiobis(2-nitrobenzoic acid) (Ellman′s reagent, DTNB), phosphate buffer (PB, 0.1 M, pH 7.4), and acetylthiocholine (ATC) and butyrylthiocholine (BTC), were purchased from Sigma-Aldrich, Prague, Czech Republic. Human plasma was used as a source of BChE and was prepared from heparinized human blood. The blood was centrifuged for 20 min (4 °C, 2300× g) on a Hettich Universal 320R centrifuge. The plasma was separated and stored at […]. Polystyrene Nunc 96-well microplates with a flat bottom shape (ThermoFisher Scientific, Waltham, MA, USA) were used for measuring purposes.
(§2) All of the assays were carried out in a 0.1 M phosphate buffer, pH 7.4. The assay medium (100 µL) consisted of 40 µL of 0.1 M phosphate buffer (pH 7.4), 20 µL of 0.01 M DTNB, 10 µL of the enzyme, and 20 µL of 0.01 M substrate ATC/BTC iodide solution).
(§3) The tested compounds were preincubated for 5 min prior to use. The reaction was initiated immediately upon addition of 20 µL of the substrate. […] Each concentration was assayed in triplicate. Software GraphPad Prism 5 (San Diego, CA, USA) was used in the evaluation of the statistical data.

[3] = biological target: T2, human recombinant AChE (Homo sapiens, UniProt P22303); experiment: biochemical; type: biochemical; details: mean of at least three experiments
T2 construct: purchased Sigma-Aldrich, Prague, Czech Republic
Protocol: as §1, §2, §3

[4] = in vitro
Protocol: The parallel artificial membrane permeability assay (PAMPA) is used as a non-cell-based in vitro assay to predict BBB penetration and is carried out in a coated 96-well membrane filter. In our assays, the filter membrane of the donor plate was coated with PBL (Polar Brain Lipid, Avanti, Denver, CO, USA) in dodecane (4 µL of 20 mg mL^−1 PBL in dodecane), and the acceptor well was filled with 300 µL of phosphate buffered saline (PBS) (pH 7.4; VA). The tested compounds were first dissolved in DMSO, and the resulting mixture was diluted with PBS (pH 7.4) to reach the final concentration (40–100 µM) in the donor well. […] Three hundred microliters of the donor solution (VD) were added to the donor wells, and the donor filter plate was carefully placed onto the acceptor plate to ensure that the coated membrane was “in contact” with both the donor solution and the acceptor buffer. The test compound diffused from the donor well through the polar brain lipid membrane (area = 0.28 cm^2) to the acceptor well. The concentration of the tested compound in both the donor and acceptor wells was assessed after 3, 4, 5, and 6 h of incubation, respectively, in quadruplicate using a UV plate reader Synergy HT (Biotek, Winooski, VT, USA) at the maximum absorption wavelength of each compound. Additionally, solutions at the theoretical equilibrium of the given compound (i.e., the theoretical concentration if the donor and acceptor compartment were simply combined) were also prepared.

T2 sequence (P22303 32-614): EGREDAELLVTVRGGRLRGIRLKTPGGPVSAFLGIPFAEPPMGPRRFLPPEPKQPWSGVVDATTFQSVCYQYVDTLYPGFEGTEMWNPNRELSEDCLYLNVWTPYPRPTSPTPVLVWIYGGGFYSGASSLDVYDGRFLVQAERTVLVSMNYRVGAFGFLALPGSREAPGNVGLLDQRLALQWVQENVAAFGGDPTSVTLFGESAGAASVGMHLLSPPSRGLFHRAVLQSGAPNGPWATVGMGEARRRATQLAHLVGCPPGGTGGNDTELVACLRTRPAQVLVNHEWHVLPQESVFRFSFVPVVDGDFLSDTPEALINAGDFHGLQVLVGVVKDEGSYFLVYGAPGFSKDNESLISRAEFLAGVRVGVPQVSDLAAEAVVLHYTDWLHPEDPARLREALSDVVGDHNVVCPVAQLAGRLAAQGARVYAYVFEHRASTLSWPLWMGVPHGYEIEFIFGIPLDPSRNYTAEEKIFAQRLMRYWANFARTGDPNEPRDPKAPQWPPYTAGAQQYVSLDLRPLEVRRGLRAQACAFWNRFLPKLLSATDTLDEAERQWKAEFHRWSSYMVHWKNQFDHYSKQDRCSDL
T1 sequence (P06276 29-602): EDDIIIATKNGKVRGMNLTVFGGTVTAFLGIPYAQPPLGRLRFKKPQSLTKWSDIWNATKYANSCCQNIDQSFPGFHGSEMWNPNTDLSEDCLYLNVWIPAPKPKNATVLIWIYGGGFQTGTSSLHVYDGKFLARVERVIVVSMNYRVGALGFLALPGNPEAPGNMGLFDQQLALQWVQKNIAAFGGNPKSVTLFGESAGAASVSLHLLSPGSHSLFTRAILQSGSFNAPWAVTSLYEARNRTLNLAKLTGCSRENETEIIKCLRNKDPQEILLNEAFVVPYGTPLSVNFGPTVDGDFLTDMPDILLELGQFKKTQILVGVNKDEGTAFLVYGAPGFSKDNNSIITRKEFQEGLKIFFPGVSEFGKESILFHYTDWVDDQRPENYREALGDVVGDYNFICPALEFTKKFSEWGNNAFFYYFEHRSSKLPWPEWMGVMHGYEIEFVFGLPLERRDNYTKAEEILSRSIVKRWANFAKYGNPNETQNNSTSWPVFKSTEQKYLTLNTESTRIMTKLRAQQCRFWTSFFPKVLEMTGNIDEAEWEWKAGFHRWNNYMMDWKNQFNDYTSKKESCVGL

COC(=O)Cc1cc(=O)oc2cc(OCCCCCCCCN3CCN(CCNC(=O)Cc4cc(=O)oc5cc(O)ccc45)CC3)ccc12 [12e, Methyl 2-[7-({2-[4-(2-{[2-(7-hydroxy-2-oxo-2H-4-chromenyl)acetyl]amino}etyl)piperazino]oktyl}oxy)-2-oxo-2H-4-chromenyl]acetate]
Number of proliferating cells (Ki67 index) ([1]; 35 µM): 59.4 ± 2.6% | Number of proliferating cells (Ki67 index) ([1]; 65 µM): 16.5 ± 12.9% | IC50 ± S.E.M. hBChE [2]: did not show inhibitory activity | IC50 ([2]; read-out: IC50 ± S.E.M. hBChE): > 500 µM | IC50 ± S.E.M. hAChE [3]: did not show inhibitory activity | IC50 ([3]; read-out: IC50 ± S.E.M. hAChE): > 500 µM | BBB permeability prediction (in words) ([4]; PAMPA): positive outcome; also recorded: high probability of BBB permeability; also recorded: high probability to cross the BBB | Papp ([4]; PAMPA, pH 7.4): 13.4 ± 3.56 ×10⁻⁶ cm/s | CNS Predicted Availability ([4]; classification from PAMPA-BBB Pe): CNS+ (CNS+: high BBB permeation predicted with Pe (×10^−6 cm s^−1) > 4.0)
